Where two headings read alike, the source gives them in different places.
Key:
Type in all cases: cell-based, mouse
[1] = test system: β-galactosidase in CMV-LacZ C2C12 myotubes; experiment: CMV-LacZ secondary screen in C2C12 myotubes (β-Gal stabilizing assay); details: C2C12 CMV-LacZ myotubes, fold relative to DMSO
Summary of the method: (§1)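 A secondary screen identifies compounds that stabilize β-gal independently of the native promoter, using CMV-LacZ C2C12 cells. Curves span 0.5–40 μM at six levels, in duplicate.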

[2] = test system: α7 integrin (LacZ reporter in α7βgal+/− myoblasts); experiment: Myoblast α7+/LacZ integrin FDG assay (Burkin assay in myoblasts, 96-well); details: α7+/LacZ myoblasts, 96-well; for fold induction at 0.5 µM / fold induction at 1 µM / fold induction at 5 µM / fold induction at 10 µM / fold induction at 20 µM / fold induction at 40 µM: Mus musculus, Myoblast, 48 h
[3] = test system: β-galactosidase in CMV-LacZ C2C12 myoblasts; experiment: CMV-LacZ secondary screen in C2C12 myoblasts (β-Gal stabilizing assay); details: CMV-LacZ C2C12 myoblasts
Summary of the method: as §1

[4] = test system: α7 integrin (LacZ reporter in α7+/LacZ myotubes); experiment: Myotube α7 integrin FDG assay (Burkin assay in myotubes, 96-well); details: myotubes; for fold induction at 0.5 µM / fold induction at 1 µM / fold induction at 5 µM / fold induction at 10 µM / fold induction at 20 µM / fold induction at 40 µM: Mus musculus, Myotube

Structure (SMILES): CCOC(=O)C1CCCN(C(=O)CNS(=O)(=O)c2ccc(Br)s2)C1 (stereo not drawn) [MLS000086970-01]
- fold induction at 0.5 µM ([1]; Mus musculus, C2C12, read-out: CMV-LACZ in Myotubes, signal relative to DMSO, 0.5 uM): 0.967
- fold induction at 1 µM ([1]; Mus musculus, C2C12, read-out: CMV-LACZ in Myotubes, signal relative to DMSO, 1 uM): 0.885
- fold induction at 5 µM ([1]; Mus musculus, C2C12, read-out: CMV-LACZ in Myotubes, signal relative to DMSO, 5 uM): 1.11
- fold induction at 10 µM ([1]; Mus musculus, C2C12, read-out: CMV-LACZ in Myotubes, signal relative to DMSO, 10 uM): 0.974
- fold induction at 20 µM ([1]; Mus musculus, C2C12, read-out: CMV-LACZ in Myotubes, signal relative to DMSO, 20 uM): 0.987
- fold induction at 40 µM ([1]; Mus musculus, C2C12, read-out: CMV-LACZ in Myotubes, signal relative to DMSO, 40 uM): 0.988
- fold induction at 0.5 µM ([2]; 0.5 uM, read-out: Burkin Assay in Myoblasts, signal relative to DMSO): 0.982
- fold induction at 0.5 µM ([2]; 0.5 uM, read-out: Burkin Assay in Myoblasts, value relative to DMSO): 1.01
- fold induction at 1 µM ([2]; 1 uM, read-out: Burkin Assay in Myoblasts, signal relative to DMSO): 1.07
- fold induction at 1 µM ([2]; 1 uM, read-out: Burkin Assay in Myoblasts, value relative to DMSO): 1.2
- fold induction at 5 µM ([2]; 5 uM, read-out: Burkin Assay in Myoblasts, signal relative to DMSO): 0.858
- fold induction at 5 µM ([2]; 5 uM, read-out: Burkin Assay in Myoblasts, value relative to DMSO): 1.6
- fold induction at 10 µM ([2]; 10 uM, read-out: Burkin Assay in Myoblasts, signal relative to DMSO): 0.872
- fold induction at 10 µM ([2]; 10 uM, read-out: Burkin Assay in Myoblasts, value relative to DMSO): 0.955
- fold induction at 20 µM ([2]; 20 uM, read-out: Burkin Assay in Myoblasts, signal relative to DMSO): 0.854
- fold induction at 20 µM ([2]; 20 uM, read-out: Burkin Assay in Myoblasts, value relative to DMSO): 1.02
- fold induction at 40 µM ([2]; 40 uM, read-out: Burkin Assay in Myoblasts, signal relative to DMSO): 0.781
- fold induction at 40 µM ([2]; 40 uM, read-out: Burkin Assay in Myoblasts, value relative to DMSO): 0.934
- CMV-LACZ in Myoblasts (β-galactosidase activity relative to DMSO) ([3]; 0.5 uM): 0.9925
- CMV-LACZ in Myoblasts (β-galactosidase activity relative to DMSO) ([3]; 1 uM): 1.0504
- CMV-LACZ in Myoblasts (β-galactosidase activity relative to DMSO) ([3]; 5 uM): 0.8994
- CMV-LACZ in Myoblasts (β-galactosidase activity relative to DMSO) ([3]; 10 uM): 0.9068
- CMV-LACZ in Myoblasts (β-galactosidase activity relative to DMSO) ([3]; 20 uM): 1.0197
- CMV-LACZ in Myoblasts (β-galactosidase activity relative to DMSO) ([3]; 40 uM): 0.8880
- fold induction at 0.5 µM ([4]; 0.5 uM, read-out: Burkin Assay in Myotubes (signal relative to DMSO)): 0.953
- fold induction at 1 µM ([4]; 1 uM, read-out: Burkin Assay in Myotubes (signal relative to DMSO)): 0.922
- fold induction at 5 µM ([4]; 5 uM, read-out: Burkin Assay in Myotubes (signal relative to DMSO)): 1.09
- fold induction at 10 µM ([4]; 10 uM, read-out: Burkin Assay in Myotubes (signal relative to DMSO)): 0.961
- fold induction at 20 µM ([4]; 20 uM, read-out: Burkin Assay in Myotubes (signal relative to DMSO)): 0.931
- fold induction at 40 µM ([4]; 40 uM, read-out: Burkin Assay in Myotubes (signal relative to DMSO)): 0.887
- fold induction at 0.5 µM ([4]; 0.5 uM, read-out: Burkin Assay in Myotubes, α7 integrin LacZ reporter signal relative to DMSO): 1
- fold induction at 1 µM ([4]; 1 uM, read-out: Burkin Assay in Myotubes, α7 integrin LacZ reporter signal relative to DMSO): 1.09
- fold induction at 5 µM ([4]; 5 uM, read-out: Burkin Assay in Myotubes, α7 integrin LacZ reporter signal relative to DMSO): 0.864
- fold induction at 10 µM ([4]; 10 uM, read-out: Burkin Assay in Myotubes, α7 integrin LacZ reporter signal relative to DMSO): 0.958
- fold induction at 20 µM ([4]; 20 uM, read-out: Burkin Assay in Myotubes, α7 integrin LacZ reporter signal relative to DMSO): 0.961
- fold induction at 40 µM ([4]; 40 uM, read-out: Burkin Assay in Myotubes, α7 integrin LacZ reporter signal relative to DMSO): 0.971

Structure (SMILES): Cc1ccc(N2C(=O)C3NN=C(C(=O)OCc4ccccc4)C3C2=O)cc1 (stereo not drawn) [MLS000588210-01]
- CMV-LACZ in Myotubes, signal relative to DMSO ([1]; 0.5 uM): 1.1263
- CMV-LACZ in Myotubes, signal relative to DMSO ([1]; 1 uM): 1.0853
- CMV-LACZ in Myotubes, signal relative to DMSO ([1]; 5 uM): 0.9182
- CMV-LACZ in Myotubes, signal relative to DMSO ([1]; 10 uM): 1.0815
- CMV-LACZ in Myotubes, signal relative to DMSO ([1]; 20 uM): 1.1322
- CMV-LACZ in Myotubes, signal relative to DMSO ([1]; 40 uM): 1.1656
- Burkin Assay in Myoblasts, signal relative to DMSO ([2]; 0.5 uM): 1.055
- Burkin Assay in Myoblasts, signal relative to DMSO ([2]; 1 uM): 0.9707
- Burkin Assay in Myoblasts, signal relative to DMSO ([2]; 5 uM): 0.9002
- Burkin Assay in Myoblasts, signal relative to DMSO ([2]; 10 uM): 0.9816
- Burkin Assay in Myoblasts, signal relative to DMSO ([2]; 20 uM): 1.136
- Burkin Assay in Myoblasts, signal relative to DMSO ([2]; 40 uM): 0.9611
- CMV-LACZ in Myoblasts (β-galactosidase activity relative to DMSO) ([3]; 0.5 uM): 1.2908
- CMV-LACZ in Myoblasts (β-galactosidase activity relative to DMSO) ([3]; 1 uM): 0.9782
- CMV-LACZ in Myoblasts (β-galactosidase activity relative to DMSO) ([3]; 5 uM): 0.7808
- CMV-LACZ in Myoblasts (β-galactosidase activity relative to DMSO) ([3]; 10 uM): 0.9316
- CMV-LACZ in Myoblasts (β-galactosidase activity relative to DMSO) ([3]; 20 uM): 1.0307
- CMV-LACZ in Myoblasts (β-galactosidase activity relative to DMSO) ([3]; 40 uM): 0.9000
- Burkin Assay in Myotubes, α7 integrin LacZ reporter signal relative to DMSO ([4]; 0.5 uM): 0.9425
- Burkin Assay in Myotubes, α7 integrin LacZ reporter signal relative to DMSO ([4]; 1 uM): 0.9559
- Burkin Assay in Myotubes, α7 integrin LacZ reporter signal relative to DMSO ([4]; 5 uM): 0.9466
- Burkin Assay in Myotubes, α7 integrin LacZ reporter signal relative to DMSO ([4]; 10 uM): 0.9155
- Burkin Assay in Myotubes, α7 integrin LacZ reporter signal relative to DMSO ([4]; 20 uM): 0.9763
- Burkin Assay in Myotubes, α7 integrin LacZ reporter signal relative to DMSO ([4]; 40 uM): 0.9565

Structure (SMILES): c1ccc(-c2cn3c4c(sc3n2)CCCC4)cc1 [MLS002636056-01]
- CMV-LACZ in Myotubes, signal relative to DMSO ([1]; 0.5 uM): 0.9855
- CMV-LACZ in Myotubes, signal relative to DMSO ([1]; 1 uM): 1.2636
- CMV-LACZ in Myotubes, signal relative to DMSO ([1]; 5 uM): 1.0269
- CMV-LACZ in Myotubes, signal relative to DMSO ([1]; 10 uM): 1.1613
- CMV-LACZ in Myotubes, signal relative to DMSO ([1]; 20 uM): 1.4090
- CMV-LACZ in Myotubes, signal relative to DMSO ([1]; 40 uM): 1.1160
- Burkin Assay in Myoblasts, signal relative to DMSO ([2]; 0.5 uM): 1.157
- Burkin Assay in Myoblasts, signal relative to DMSO ([2]; 1 uM): 1.066
- Burkin Assay in Myoblasts, signal relative to DMSO ([2]; 5 uM): 1.037
- Burkin Assay in Myoblasts, signal relative to DMSO ([2]; 10 uM): 1.224
- Burkin Assay in Myoblasts, signal relative to DMSO ([2]; 20 uM): 0.9377
- Burkin Assay in Myoblasts, signal relative to DMSO ([2]; 40 uM): 0.8203
- CMV-LACZ in Myoblasts (β-galactosidase activity relative to DMSO) ([3]; 0.5 uM): 0.9392
- CMV-LACZ in Myoblasts (β-galactosidase activity relative to DMSO) ([3]; 1 uM): 0.9021
- CMV-LACZ in Myoblasts (β-galactosidase activity relative to DMSO) ([3]; 5 uM): 1.0394
- CMV-LACZ in Myoblasts (β-galactosidase activity relative to DMSO) ([3]; 10 uM): 1.2571
- CMV-LACZ in Myoblasts (β-galactosidase activity relative to DMSO) ([3]; 20 uM): 1.1173
- CMV-LACZ in Myoblasts (β-galactosidase activity relative to DMSO) ([3]; 40 uM): 0.8270
- Burkin Assay in Myotubes, α7 integrin LacZ reporter signal relative to DMSO ([4]; 0.5 uM): 0.9619
- Burkin Assay in Myotubes, α7 integrin LacZ reporter signal relative to DMSO ([4]; 1 uM): 1.089
- Burkin Assay in Myotubes, α7 integrin LacZ reporter signal relative to DMSO ([4]; 5 uM): 0.9203
- Burkin Assay in Myotubes, α7 integrin LacZ reporter signal relative to DMSO ([4]; 10 uM): 1.027
- Burkin Assay in Myotubes, α7 integrin LacZ reporter signal relative to DMSO ([4]; 20 uM): 0.9045
- Burkin Assay in Myotubes, α7 integrin LacZ reporter signal relative to DMSO ([4]; 40 uM): 1.167

Reference: US9980943B2, “Methods of treating muscular dystrophy” (BOARD OF REGENTS OF THE NEVADA SYSTEM OF HIGHER EDUCATION, …, priority 2013, dated 2018)
